# In patent publication US20220170028A1, “NOVEL INTERLEUKIN-2 VARIANTS AND BIFUNCTIONAL FUSION MOLECULES THEREOF” (Cugene Inc, priority 2019, published 2022):
# Entries after “also recorded” stand apart in the source; their conditions may differ.
# Legend:
# NK cells [1] = assay: Ki67 expression on NK cells, human PBMC, flow cytometry; type: cell-based
# Text: (§1) Exemplary IL-2 variant Fc fusion protein P-0573 was further characterized for induction of Ki-67 expression by flow cytometry.
# CD8+ T cells [2] = assay: Ki67 expression on CD8+ T cells, human PBMC, flow cytometry; type: cell-based
# Text: as §1
# Treg cells [3] = assay: Treg pharmacodynamics in mice after repeated administration Q3D (Example 11); type: in vivo, mouse; details: 0.3 mg/kg s.c.
# Protocol: Female Balb/C mice (7-week old) were acclimated in house for 5-7 days before the study. Vehicle (PBS), 0.3 mg/kg of P-0511, P-0512, P-0531, or Benchmark-1 compound were subcutaneously administered to mice (n=5/group) on days 0, 3, and 6. On days 3 and 9, three days after the first injection and multiple (3) injections, respectively, peripheral blood was collected. Based on earlier in vivo experiments, Treg cell activation, proliferation, and expansion were expected to peak on day 3, and thus three days post injection was selected for data collection and analysis. Changes in blood lymphocyte activation, proliferation, and expansion were measured by flow cytometry. P-0531 is the S125I equivalent of the wild type IL-2 fusion protein. The Benchmark-1 contains V91K mutation.
# [4] = system: CD4+ Treg vs CD4+ Tconv cells; assay: STAT5 phosphorylation, selectivity / activity profile Treg versus CD4+ Tconv cells, human PBMC; type: cell-based
# Procedure, shortened: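 Fresh human PBMC from a healthy donor, serum-starved 1 h at 4 °C, then exposed to serial dilutions of IL-2 variants for 30 min at 37 °C. After fixation/permeabilization, cells stained for CD4, CD25, FOXP3 and pSTAT5 and analysed by flow cytometry. Treg (CD4+/Foxp3+/CD25high) and Tconv (CD4+/Foxp3−/CD25low) gated; read-out is percent pSTAT5-positive cells.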
# [5] = system: CD4+/Foxp3+/CD25+ Treg, CD4+/Foxp3-/CD25+ Teff and CD4+/Foxp3-/CD25- naive T cells; assay: STAT5 phosphorylation in three CD4+ T cell subsets (Treg, CD4 effector, CD4 naive), human PBMC; type: cell-based
# Text: In addition to being assessed for their ability to differentially stimulate Stat5 phosphorylation in CD4 positive Treg (CD4+/Foxp3+/CD25^high) versus Tconv (CD4+/Foxp3−/CD25^low) cells, two variants, P-0511 and P-0512, were further assayed for their ability to stimulate other effector T and NK cells, including CD4 positive Teff (CD4+/Foxp3-/CD25+), CD8 cytotoxic T effector and NK cells in comparison to wild-type IL-2 (P-0250) and three IL-2 benchmark molecules containing V91K, N88R, N88D respectively.
# After human PBMC Cells were treated with serial dilutions of test compounds, fixed and permeabilized, washed, and stained with a mixture of anti-CD25-PE, anti-FOXP3-APC, anti-pSTAT5-FITC, and anti-CD4-PerCP-Cy5.5 antibodies, the flow cytometry analysis was gated into CD4+/Foxp3+/CD25+, CD4+/Foxp3−/CD25+, CD4+/Foxp3−/CD25− groups for the Treg, CD4 effector, and CD4 naive T cell subsets, respectively. Data are expressed as a percent of pStat5 positive cells in gated population and illustrated in FIG. 9.
# CD8+ T cells [6] = assay: CD8+ T cell proliferation, CFSE dilution, human PBMC; type: cell-based; details: 5 or 7 days incubation
# Protocol: (§2) Further, P-0511 and P-0512 were tested for their ability to stimulate NK and CD8+ T cells proliferation in comparison with the wild type and benchmark molecules. Intracellular fluorescent label carboxyfluorescein diacetate succinimidyl ester (CFSE) method was utilized. Briefly, human PBMC (1×10^5 cells/well) were labeled with CFSE, plated onto 96-well plates, and incubated with increasing concentrations of different IL-2 compounds. Cells were then harvested after 5 or 7 days of incubation and stained with either anti-CD56-APC antibody for NK cells or anti-CD8-APC antibody for CD8+ T cells; and analyzed by flow cytometry. Data are expressed as a percent of divided cells and illustrated in FIG. 10A for CD8+ T cell proliferation and FIG. 10B for NK cell proliferation.
# [7] = system: CD4+ Tconv cells, CD8 T cells and NK cells; assay: Effector T cell and NK cell proliferation and expansion in mice after a single subcutaneous injection (Example 9); type: in vivo, mouse; details: 0.3 mg/kg single s.c., C57/BL6 mice
# Protocol: (§3) IL-2 variant Fc fusion proteins were administered to mice and their ability to preferentially proliferate and expand regulatory T cells (CD4+CD25+FoxP3+ T cells) over effector T cells and NK cells were determined in vivo.
# (§4) Female C57/BL6 mice (7-week old) were received from Charles River Laboratory and acclimated in house for at least 7 days before the study. Vehicle (PBS), 0.3 mg/kg of each test compounds, or IL-2 benchmark compounds were subcutaneously administered to mice on day 0. Peripheral blood samples were collected into heparin-treated tubes on days 3, 5 and 7 post-treatment. Each group contained 6 mice and baseline blood was collected 2 days prior to the treatment (day −2). After red blood cell lysis, total viable mononuclear blood cells were counted by trypan blue dead cell exclusion method and proceeded to intracellular staining for immune cell phenotype and Ki67 proliferation markers using flow cytometric analysis. Cells were stained separately with two panels of antibodies as listed: 1) anti-mouse Foxp3-FITC, Ki67-PE, anti-mouse CD25-APC and anti-mouse CD4-Percpcy5.5 (1:50 dilution) for CD4+T-regulatory cells (Treg); 2) anti-mouse CD3-FITC, Ki67-PE, anti-mouse CD335-APC and anti-mouse CD8-Percpcy5.5 (1:50 dilution) for CD8+T and NK cells.
# Treg cells [8] = assay: Treg proliferation and expansion in mice after a single subcutaneous injection (Example 9); type: in vivo, mouse; details: 0.3 mg/kg single s.c., C57/BL6 mice
# Protocol: as §3, §4
# NK cells [9] = assay: NK cell proliferation, CFSE dilution, human PBMC; type: cell-based; details: 5 or 7 days incubation
# Protocol: as §2
# Treg cells [10] = assay: Treg proliferation and expansion in mice after a single s.c. injection of bifunctional constructs (Example 17); type: in vivo, mouse; details: 15 nmol/kg single s.c.; for potency in inducing Treg cell proliferation and expansion in vivo (in words): C57/BL6 mice
# Protocol: as §3, with “IL-2 variant tocilizumab bifunctional proteins P-0536, P-0546, P-0559, and P-0560 along with IL-2” for “IL-2”, “protein P-0511” for “proteins”, “mice,” for “mice”
# (§5) Female C57/BL6 mice (7-week old) were received from Charles River Laboratory and acclimated in house for at least 7 days before the study. Vehicle (PBS) and 15 nmol/kg each test compounds were subcutaneously administered to mice on day 0. Peripheral blood samples were collected into heparin-treated tubes on days 2, 4 and 8 post-treatment. Each group contained 5 mice and baseline blood was collected 3 days prior to the treatment (day −3).
# [11] = system: CD4+ Tconv, activated CD4+ T, CD8+ T and NK cells; assay: Effector T cell and NK cell proliferation and expansion in mice, bifunctional constructs (Example 17); type: in vivo, mouse; details: 15 nmol/kg single s.c.
# Protocol: as §3, with “IL-2 variant tocilizumab bifunctional proteins P-0536, P-0546, P-0559, and P-0560 along with IL-2” for “IL-2”, “protein P-0511” for “proteins”, “mice,” for “mice”
# as §5
# CD4+ T cells = assay: Ki67 expression on CD4+ T cells, human PBMC, flow cytometry; type: cell-based
# Text: as §1
Substance,induction of Ki67 expression in NK cells (NK cells [1]),induction of Ki67 expression in CD8+ T cells (CD8+ T cells [2]),"Treg/Tconv ratio (Ki67 stimulation, cell counts) (Treg cells [10])",expression of CD25 and Foxp3 on Treg cells (Treg cells [10]),potency in inducing Treg cell proliferation and expansion in vivo (in words) (Treg cells [10]),change of the activated CD4+ T cells [11],further results
"Benchmark-4: benchmark Fc-IL-2 fusion with IL-2Rα-disrupting triple mutations F42A/Y45A/L72G, SEQ ID NO: 250 [reference compound]",equally effective,equally effective,,,,,
"P-0512: IL-2 L19H/S125I/Q126K Fc fusion, SEQ ID NO: 214",,,,,,,"% Treg over total CD4 T cells or over total lymphocytes (Treg cells [3]; after three consecutive Q3D treatments): sustained at significantly high levels; Treg cell counts, fold changes relative to PBS and Treg/Tconv ratio (Treg cells [3]; repeated dosing Q3D): superior capabilities to sustain Treg pool and maintain Treg selectivity; Treg Selectivity ([4]; Isoleucine-125 constructs): Yes; pSTAT5 activity profile in Treg, Teff and naive CD4 T cell subsets (in words) [5]: comparable activity profile to Benchmark-1; potency in stimulating CD8+ T cell proliferation (in words) (CD8+ T cells [6]): comparable activity profile to Benchmark-1; Ki67 stimulation on CD8 T cells and NK cells in vivo (in words) [7]: mild Ki67 stimulation; expansion of CD4+ Tconv cells, CD8 T cells or NK cells in vivo [7]: No significant expansion; Treg/Tconv ratio (Ki67 stimulation and cell counts) (Treg cells [8]; all measured time points): most beneficial Treg/Tconv ratio; stimulation of Treg cell proliferation and expansion in vivo (in words) (Treg cells [8]; days 3, 5, 7): stronger in vivo efficacy; potency in stimulating NK cell proliferation (in words) (NK cells [9]): comparable activity profile to Benchmark-1"
"P-0546: Tocilizumab IL-2 L19H/S125I/Q126E monovalent fusion, SEQ ID NOs 253 + 254 + 256",,,most beneficial Treg/Tconv ratio,highest expression of CD25,highest potency,slight increase,
"P-0560: Tocilizumab IL-2 D20Q/S125I monovalent fusion, SEQ ID NOs 253 + 254 + 266",,,most beneficial Treg/Tconv ratio,highest expression of CD25,highest potency,slight increase,activity profile / selectivity window Treg over CD4+ Tconv (in words) [4]: selective activation of Treg cells over CD4+ Tconv cells
"P-0573: IL-2 R38A/P65G/S125I Fc fusion, SEQ ID NO: 247",equally effective,equally effective,,,,,induction of Ki67 expression in CD4+ T cells (CD4+ T cells): substantially reduced potency; also recorded: higher potency than Benchmark-4
